# Measured values published in ChEMBL document CHEMBL3259542, “Design, synthesis and pharmacological evaluation of novel polycyclic heteroarene ethers as PDE10A inhibitors: Part I” (Bioorg Med Chem Lett, 2014).
# Key:
# [1] = tested on: Liver microsome; experiment: Drug level in rat liver microsomes treated with 9-Methyl-3-(2-{[3-(pyrimidin-5-yl)pyridin-2-yl]oxy}ethyl)-9H-pyrido[2,3-b]indole at 1 uM after 60 mins by LC-MS/MS analysis; assay type: ADME; conditions: 1 h
# [2] = Retention time of the compound by HPLC analysis; assay type: physicochemical
# [3] = target: T1, cAMP and cAMP-inhibited cGMP 3',5'-cyclic phosphodiesterase 10A (Homo sapiens, UniProt Q9Y233); experiment: Inhibition of N-terminal GST-tagged human recombinant PDE10A assessed as substrate hydrolysis using [3H]cAMP as substrate at 1 uM after 30 mins by two-step radiometric assay
# [4] = target: T1, cAMP and cAMP-inhibited cGMP 3',5'-cyclic phosphodiesterase 10A; experiment: Inhibition of N-terminal GST-tagged human recombinant PDE10A assessed as substrate hydrolysis using [3H]cAMP as substrate after 30 mins by two-step radiometric assay
# [5] = target: cGMP-inhibited 3',5'-cyclic phosphodiesterase 3A (Homo sapiens) (UniProt Q14432); experiment: Inhibition of N-terminal GST-tagged human recombinant PDE3A assessed as substrate hydrolysis using cAMP as substrate at 1 uM after 30 mins by homogenous time-resolved fluorescence method
# cGMP-inhibited 3',5'-cyclic phosphodiesterase 3A (Homo sapiens), sequence (Q14432 whole entry): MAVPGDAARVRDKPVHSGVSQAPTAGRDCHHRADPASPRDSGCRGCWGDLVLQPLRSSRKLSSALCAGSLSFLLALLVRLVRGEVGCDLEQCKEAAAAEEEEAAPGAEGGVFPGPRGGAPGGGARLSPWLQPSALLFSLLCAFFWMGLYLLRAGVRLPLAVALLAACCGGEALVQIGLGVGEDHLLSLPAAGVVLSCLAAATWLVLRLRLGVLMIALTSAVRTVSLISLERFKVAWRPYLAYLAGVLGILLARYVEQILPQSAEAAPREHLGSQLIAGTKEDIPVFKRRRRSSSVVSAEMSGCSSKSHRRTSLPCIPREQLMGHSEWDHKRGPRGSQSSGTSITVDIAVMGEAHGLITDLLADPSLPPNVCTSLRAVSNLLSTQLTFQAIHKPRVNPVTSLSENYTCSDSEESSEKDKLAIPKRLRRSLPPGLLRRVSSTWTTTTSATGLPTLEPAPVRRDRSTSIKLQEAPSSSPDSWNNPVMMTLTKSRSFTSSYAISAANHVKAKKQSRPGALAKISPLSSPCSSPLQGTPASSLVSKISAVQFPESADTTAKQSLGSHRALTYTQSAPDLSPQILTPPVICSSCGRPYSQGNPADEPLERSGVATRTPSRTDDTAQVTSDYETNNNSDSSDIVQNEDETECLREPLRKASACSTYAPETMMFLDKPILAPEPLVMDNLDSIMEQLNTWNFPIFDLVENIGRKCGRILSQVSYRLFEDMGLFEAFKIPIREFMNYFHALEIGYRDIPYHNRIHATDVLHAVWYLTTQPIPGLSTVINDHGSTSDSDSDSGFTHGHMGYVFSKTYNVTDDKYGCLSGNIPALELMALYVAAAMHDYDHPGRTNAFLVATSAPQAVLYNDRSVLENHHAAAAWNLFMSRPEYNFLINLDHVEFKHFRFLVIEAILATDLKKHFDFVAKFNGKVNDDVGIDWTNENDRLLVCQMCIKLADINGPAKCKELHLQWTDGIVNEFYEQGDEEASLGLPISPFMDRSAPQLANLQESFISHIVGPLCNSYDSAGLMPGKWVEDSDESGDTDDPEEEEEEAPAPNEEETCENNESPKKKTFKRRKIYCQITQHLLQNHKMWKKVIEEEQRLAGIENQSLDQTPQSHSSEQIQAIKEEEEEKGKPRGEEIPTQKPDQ
# [6] = target: High affinity 3',5'-cyclic-AMP phosphodiesterase 7A (Homo sapiens) (UniProt Q13946); experiment: Inhibition of N-terminal GST-tagged human recombinant PDE7A assessed as substrate hydrolysis using [3H]cAMP as substrate at 1 uM after 30 mins by two-step radiometric assay
# High affinity 3',5'-cyclic-AMP phosphodiesterase 7A (Homo sapiens), sequence (Q13946 whole entry): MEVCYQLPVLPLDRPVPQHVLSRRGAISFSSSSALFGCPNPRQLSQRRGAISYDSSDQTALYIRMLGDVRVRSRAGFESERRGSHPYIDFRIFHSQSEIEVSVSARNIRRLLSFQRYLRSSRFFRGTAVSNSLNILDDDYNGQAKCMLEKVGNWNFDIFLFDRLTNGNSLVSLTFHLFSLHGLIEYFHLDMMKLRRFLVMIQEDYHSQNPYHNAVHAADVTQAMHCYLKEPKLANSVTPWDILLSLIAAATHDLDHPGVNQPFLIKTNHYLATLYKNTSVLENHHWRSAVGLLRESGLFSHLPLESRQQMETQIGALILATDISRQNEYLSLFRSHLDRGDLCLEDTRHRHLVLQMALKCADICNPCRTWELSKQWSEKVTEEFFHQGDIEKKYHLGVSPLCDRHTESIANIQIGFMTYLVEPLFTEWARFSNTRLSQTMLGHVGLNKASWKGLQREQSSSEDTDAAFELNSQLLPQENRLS
# [7] = target: Dual 3',5'-cyclic-AMP and -GMP phosphodiesterase 11A (Homo sapiens) (UniProt Q9HCR9); experiment: Inhibition of N-terminal GST-tagged human recombinant PDE11A assessed as substrate hydrolysis using [3H]cAMP as substrate at 1 uM after 30 mins by two-step radiometric assay
# Dual 3',5'-cyclic-AMP and -GMP phosphodiesterase 11A (Homo sapiens), sequence (Q9HCR9 whole entry, looked up): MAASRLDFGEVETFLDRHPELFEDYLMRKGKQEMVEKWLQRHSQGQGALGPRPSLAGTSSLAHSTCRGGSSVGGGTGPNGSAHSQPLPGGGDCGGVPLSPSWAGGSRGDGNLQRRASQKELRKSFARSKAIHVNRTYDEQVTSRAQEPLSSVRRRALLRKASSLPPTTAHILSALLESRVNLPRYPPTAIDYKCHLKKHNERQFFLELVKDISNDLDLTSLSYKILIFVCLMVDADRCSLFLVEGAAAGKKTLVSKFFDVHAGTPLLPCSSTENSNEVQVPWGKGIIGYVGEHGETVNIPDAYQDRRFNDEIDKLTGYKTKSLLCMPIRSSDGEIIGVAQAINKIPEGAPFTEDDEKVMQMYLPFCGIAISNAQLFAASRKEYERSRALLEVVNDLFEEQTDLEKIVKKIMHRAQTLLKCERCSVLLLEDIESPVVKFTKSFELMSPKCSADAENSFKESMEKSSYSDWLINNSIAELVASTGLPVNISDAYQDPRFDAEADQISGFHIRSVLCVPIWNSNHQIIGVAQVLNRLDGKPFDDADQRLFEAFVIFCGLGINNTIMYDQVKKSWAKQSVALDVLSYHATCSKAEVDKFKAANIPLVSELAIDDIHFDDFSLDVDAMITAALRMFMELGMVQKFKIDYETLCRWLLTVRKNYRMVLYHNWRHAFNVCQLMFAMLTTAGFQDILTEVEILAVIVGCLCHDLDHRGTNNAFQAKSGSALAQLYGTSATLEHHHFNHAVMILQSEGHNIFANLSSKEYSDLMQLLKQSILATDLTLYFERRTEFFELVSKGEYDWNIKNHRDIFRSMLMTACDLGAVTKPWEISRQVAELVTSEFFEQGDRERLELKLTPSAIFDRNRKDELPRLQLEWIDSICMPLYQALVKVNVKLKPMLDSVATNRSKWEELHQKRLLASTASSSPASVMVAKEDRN
# [8] = target: cGMP-dependent 3',5'-cyclic phosphodiesterase (Homo sapiens) (UniProt O00408); experiment: Inhibition of N-terminal GST-tagged human recombinant PDE2A assessed as substrate hydrolysis using cAMP as substrate at 1 uM after 30 mins by homogenous time-resolved fluorescence method
# cGMP-dependent 3',5'-cyclic phosphodiesterase (Homo sapiens), sequence (O00408 whole entry): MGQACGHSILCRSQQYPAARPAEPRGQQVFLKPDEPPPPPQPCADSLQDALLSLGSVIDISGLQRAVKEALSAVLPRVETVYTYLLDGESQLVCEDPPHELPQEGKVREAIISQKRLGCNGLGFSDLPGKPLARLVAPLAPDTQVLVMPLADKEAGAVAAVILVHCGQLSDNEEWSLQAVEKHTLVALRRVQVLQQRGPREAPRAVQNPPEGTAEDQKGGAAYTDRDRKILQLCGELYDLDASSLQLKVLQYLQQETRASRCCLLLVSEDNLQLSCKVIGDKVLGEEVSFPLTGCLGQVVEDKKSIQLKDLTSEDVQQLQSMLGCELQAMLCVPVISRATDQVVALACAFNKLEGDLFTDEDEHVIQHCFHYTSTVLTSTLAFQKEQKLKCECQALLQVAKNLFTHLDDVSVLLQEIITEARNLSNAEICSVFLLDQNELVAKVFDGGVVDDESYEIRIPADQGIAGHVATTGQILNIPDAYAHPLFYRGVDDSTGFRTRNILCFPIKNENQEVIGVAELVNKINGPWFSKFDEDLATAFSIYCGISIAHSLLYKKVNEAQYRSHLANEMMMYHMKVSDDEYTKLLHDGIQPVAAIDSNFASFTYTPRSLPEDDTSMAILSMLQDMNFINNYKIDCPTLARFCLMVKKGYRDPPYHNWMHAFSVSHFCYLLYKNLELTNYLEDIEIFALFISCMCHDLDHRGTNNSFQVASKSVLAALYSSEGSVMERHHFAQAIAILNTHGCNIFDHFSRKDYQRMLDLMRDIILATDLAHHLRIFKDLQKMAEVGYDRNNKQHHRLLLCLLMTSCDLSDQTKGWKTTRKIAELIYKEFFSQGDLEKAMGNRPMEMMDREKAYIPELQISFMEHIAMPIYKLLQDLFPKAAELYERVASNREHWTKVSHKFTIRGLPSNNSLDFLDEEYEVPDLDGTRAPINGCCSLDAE
# [9] = target: Dual specificity calcium/calmodulin-dependent 3',5'-cyclic nucleotide phosphodiesterase 1A (Homo sapiens) (UniProt P54750); experiment: Inhibition of N-terminal GST-tagged human recombinant PDE1A assessed as substrate hydrolysis using [3H]cAMP as substrate at 1 uM after 30 mins by two-step radiometric assay
# Dual specificity calcium/calmodulin-dependent 3',5'-cyclic nucleotide phosphodiesterase 1A (Homo sapiens), sequence (P54750 whole entry): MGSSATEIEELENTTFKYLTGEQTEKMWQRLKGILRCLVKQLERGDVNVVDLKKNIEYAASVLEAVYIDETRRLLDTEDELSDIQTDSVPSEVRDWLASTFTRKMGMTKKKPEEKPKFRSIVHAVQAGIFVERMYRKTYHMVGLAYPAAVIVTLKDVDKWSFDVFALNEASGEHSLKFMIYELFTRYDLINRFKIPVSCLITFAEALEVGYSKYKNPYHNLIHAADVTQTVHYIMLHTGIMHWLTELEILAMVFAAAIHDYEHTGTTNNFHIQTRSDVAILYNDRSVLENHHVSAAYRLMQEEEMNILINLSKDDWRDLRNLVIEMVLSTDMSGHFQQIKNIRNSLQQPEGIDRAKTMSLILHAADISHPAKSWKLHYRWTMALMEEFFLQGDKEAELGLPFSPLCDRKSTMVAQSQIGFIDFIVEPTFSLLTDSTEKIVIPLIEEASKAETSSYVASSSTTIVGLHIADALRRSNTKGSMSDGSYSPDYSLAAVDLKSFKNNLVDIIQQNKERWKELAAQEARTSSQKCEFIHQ
# [10] = Metabolic stability in human liver microsomes assessed as compound remaining at 1 uM after 60 mins; assay type: ADME; conditions: read-out: Stability
# [11] = target: High affinity cGMP-specific 3',5'-cyclic phosphodiesterase 9A (Homo sapiens) (UniProt O76083); experiment: Inhibition of N-terminal GST-tagged human recombinant PDE9A assessed as substrate hydrolysis using [3H]cGMP as substrate at 1 uM after 30 mins by two-step radiometric assay
# [12] = target: High affinity cAMP-specific and IBMX-insensitive 3',5'-cyclic phosphodiesterase 8A (Homo sapiens) (UniProt O60658); experiment: Inhibition of N-terminal GST-tagged human recombinant PDE8A assessed as substrate hydrolysis using [3H]cAMP as substrate at 1 uM after 30 mins by two-step radiometric assay
# [13] = target: 3',5'-cyclic-AMP phosphodiesterase 4D (Homo sapiens) (UniProt Q08499); experiment: Inhibition of N-terminal GST-tagged human recombinant PDE4D assessed as substrate hydrolysis using [3H]cAMP as substrate at 1 uM after 30 mins by two-step radiometric assay
# 3',5'-cyclic-AMP phosphodiesterase 4D (Homo sapiens), sequence (Q08499 whole entry): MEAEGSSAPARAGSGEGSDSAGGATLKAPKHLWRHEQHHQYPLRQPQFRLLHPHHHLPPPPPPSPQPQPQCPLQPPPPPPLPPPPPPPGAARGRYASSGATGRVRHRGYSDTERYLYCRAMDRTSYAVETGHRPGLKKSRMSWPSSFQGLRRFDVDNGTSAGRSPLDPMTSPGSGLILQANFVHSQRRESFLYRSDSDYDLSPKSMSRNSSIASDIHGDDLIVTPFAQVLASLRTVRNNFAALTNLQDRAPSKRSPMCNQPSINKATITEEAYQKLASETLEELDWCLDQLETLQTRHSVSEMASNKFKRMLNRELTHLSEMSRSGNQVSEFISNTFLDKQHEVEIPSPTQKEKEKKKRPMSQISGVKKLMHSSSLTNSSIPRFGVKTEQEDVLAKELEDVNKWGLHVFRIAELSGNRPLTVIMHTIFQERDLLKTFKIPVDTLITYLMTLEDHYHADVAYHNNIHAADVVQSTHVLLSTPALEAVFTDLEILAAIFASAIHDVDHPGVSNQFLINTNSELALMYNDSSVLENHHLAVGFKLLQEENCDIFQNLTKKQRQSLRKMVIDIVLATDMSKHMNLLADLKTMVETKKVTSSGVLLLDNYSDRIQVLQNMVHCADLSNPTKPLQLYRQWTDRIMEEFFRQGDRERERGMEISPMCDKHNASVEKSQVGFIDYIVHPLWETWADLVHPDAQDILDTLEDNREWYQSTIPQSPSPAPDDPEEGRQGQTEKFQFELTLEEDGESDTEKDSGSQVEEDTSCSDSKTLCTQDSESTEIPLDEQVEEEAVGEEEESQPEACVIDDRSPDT
# [14] = target: cGMP-specific 3',5'-cyclic phosphodiesterase (Homo sapiens) (UniProt O76074); experiment: Inhibition of N-terminal GST-tagged human recombinant PDE5A assessed as substrate hydrolysis using [3H]cGMP as substrate at 1 uM after 30 mins by two-step radiometric assay
# [15] = species on record: Homo sapiens; experiment: Selectivity for human recombinant PDE10A over human recombinant PDE2A
# [16] = target: cGMP-dependent 3',5'-cyclic phosphodiesterase (Homo sapiens) (UniProt O00408); experiment: Inhibition of N-terminal GST-tagged human recombinant PDE2A assessed as substrate hydrolysis using cAMP as substrate at 10 uM after 30 mins by homogenous time-resolved fluorescence method
# [17] = Metabolic stability in rat liver microsomes assessed as compound remaining at 1 uM after 60 mins; assay type: ADME; conditions: read-out: Stability
# [18] = tested on: Liver microsome; experiment: Metabolic stability in rat liver microsomes assessed as metabolite M3 (1-(9H-pyrido[2,3-b]indol-3-yl)-2-(3-(pyrimidin-5-yl)pyridin-2-yloxy)ethanol) formation at 1 uM after 60 mins by LC-MS/MS analysis; assay type: ADME; conditions: 1 h
# [19] = tested on: Liver microsome; experiment: Metabolic stability in rat liver microsomes assessed as metabolite M9 (9-methyl-3-(2-(3-(pyrimidin-5-yl)pyridin-2-yloxy)vinyl)-9H-pyrido[2,3-b]indole) formation at 1 uM after 60 mins by LC-MS/MS analysis; assay type: ADME; conditions: 1 h
# [20] = tested on: Liver microsome; experiment: Metabolic stability in rat liver microsomes assessed as metabolite M8 (1-(9-methyl-9H-pyrido[2,3-b]indol-3-yl)-2-(3-(pyrimidin-5-yl)pyridin-2-yloxy)ethanol) formation at 1 uM after 60 mins by LC-MS/MS analysis; assay type: ADME; conditions: 1 h
# [21] = tested on: Liver microsome; experiment: Metabolic stability in rat liver microsomes assessed as metabolite M6 (3-(2-(3-(pyrimidin-5-yl)pyridin-2-yloxy)ethyl)-9H-pyrido[2,3-b]indole) formation at 1 uM after 60 mins by LC-MS/MS analysis; assay type: ADME; conditions: 1 h
# [22] = tested on: Liver microsome; experiment: Metabolic stability in rat liver microsomes assessed as metabolite M2 (9-methyl-3-(2-(3-(pyrimidin-5-yl)pyridin-2-yloxy)vinyl)-9H-pyrido[2,3-b]indole 9-oxide) formation at 1 uM after 60 mins by LC-MS/MS analysis; assay type: ADME; conditions: 1 h
# [23] = tested on: Liver microsome; experiment: Metabolic stability in rat liver microsomes assessed as metabolite M5 (2-(2-(9-methyl-9H-pyrido[2,3-b]indol-3-yl)vinyloxy)-3-(pyrimidin-5-yl)pyridine 1-oxide) formation at 1 uM after 60 mins by LC-MS/MS analysis; assay type: ADME; conditions: 1 h
# [24] = tested on: Liver microsome; experiment: Metabolic stability in rat liver microsomes assessed as metabolite M1 (3-(2-(3-(pyrimidin-5-yl)pyridin-2-yloxy)ethyl)-9H-pyrido[23-b]indole 1-oxide) formation at 1 uM after 60 mins by LC-MS/MS analysis; assay type: ADME; conditions: 1 h
# [25] = tested on: Liver microsome; experiment: Metabolic stability in rat liver microsomes assessed as metabolite M7 (9-methyl-3-(2-(3-(pyrimidin-5-yl)pyridin-2-yloxy)vinyl)-9H-pyrido[2,3-b]indole) formation at 1 uM after 60 mins by LC-MS/MS analysis; assay type: ADME; conditions: 1 h
# [26] = tested on: Liver microsome; experiment: Metabolic stability in rat liver microsomes assessed as metabolite M4 (9-methyl-3-(2-(3-(pyrimidin-5-yl)pyridin-2-yloxy)vinyl)-9H-pyrido[2,3-b]indole 1-oxide) formation at 1 uM after 60 mins by LC-MS/MS analysis; assay type: ADME; conditions: 1 h
# [27] = Drug uptake in Sprague-Dawley rat brain at 5 mg/kg, po after 1 hr; assay type: ADME, organism-based; set-up: dose 5 mg/kg, route oral; conditions: read-out: Drug uptake
# [28] = AUC (0 to t) in Sprague-Dawley rat at 5 mg/kg, po; assay type: ADME, organism-based; set-up: dose 5 mg/kg, route oral; conditions: plasma
# [29] = Cmax in Sprague-Dawley rat at 5 mg/kg, po; assay type: ADME, organism-based; set-up: dose 5 mg/kg, route oral; conditions: in vivo
smiles,measurement,setting,value
Cn1c2ccccc2c2cc(/C=C/Oc3c(-c4cncnc4)ccc[n+]3[O-])cnc21,Drug metabolism,[1],metabolite_detected
same,Retention_time,[2],9.69 min
Cn1c2ccccc2c2cc(CCCOc3ncccc3N3CCOCC3)cnc21,inhibition,[3],19.1%
c1cnc(OCCc2cnc3[nH]c4ccccc4c3c2)c(-c2cncnc2)c1,Drug metabolism,[1],metabolite_detected
same,Retention_time,[2],10.86 min
Cn1cc(COc2nccc(-c3ccc(F)cc3)n2)c2nc3ccccc3cc21,inhibition,[3],12.1%
OC(COc1ncccc1-c1cncnc1)c1cnc2[nH]c3ccccc3c2c1 (centres undefined),Drug metabolism,[1],metabolite_detected
same,Retention_time,[2],9.06 min
Cn1c2ccccc2c2cc(CCOc3nccnc3-c3cncnc3)cnc21,IC50,[4],67.4 nM
same,inhibition,[3],83.4%
Cn1c2ccccc2c2cc(C(O)COc3ncccc3-c3cncnc3)cnc21 (centres undefined),Drug metabolism,[1],metabolite_detected
same,Retention_time,[2],11.55 min
FC(F)n1c2ccccc2c2cc(CCOc3ncccc3-c3cncnc3)cnc21,inhibition,[5],0.4%
same,inhibition,[6],20.8%
same,inhibition,[7],15.8%
same,inhibition,[8],40.6%
same,IC50,[4],33.2 nM
same,inhibition,[9],14%
same,"remaining at 1 h, 1 µM",[10],51.1%
same,inhibition,[11],5.3%
same,inhibition,[12],2.1%
same,inhibition,[13],3.8%
same,inhibition,[14],16.7%
same,Selectivity ratio,[15],100
same,inhibition,[16],60%
same,inhibition,[3],96.3%
same,"remaining at 1 h, 1 µM",[17],41.2%
Cn1cc(COc2ncccc2-c2cncnc2)c2nc3ccccc3cc21,inhibition,[3],30.7%
Cn1cc(CCOc2nccnc2-c2cncnc2)c2nc3ccccc3cc21,IC50,[4],123 nM
same,"remaining at 1 h, 1 µM",[10],0.11%
same,inhibition,[3],82.1%
same,"remaining at 1 h, 1 µM",[17],0.27%
Cn1c2ccccc2c2cc(CCOc3ncccc3-c3cncnc3)cnc21,Drug metabolism,[18],metabolite_detected
same,Drug metabolism,[19],metabolite_detected
same,Drug metabolism,[20],metabolite_detected
same,inhibition,[5],0%
same,Drug metabolism,[21],metabolite_detected
same,Drug metabolism,[22],metabolite_detected
same,inhibition,[6],20.7%
same,inhibition,[7],12.4%
same,Drug metabolism,[23],metabolite_detected
same,inhibition,[8],67.2%
same,IC50,[4],24.2 nM
same,inhibition,[9],10.7%
same,Drug metabolism,[24],metabolite_detected
same,"remaining at 1 h, 1 µM",[10],0.45%
same,Drug metabolism,[25],metabolite_detected
same,inhibition,[11],9.8%
same,inhibition,[12],0%
same,inhibition,[13],25.8%
same,inhibition,[14],23.9%
same,Selectivity ratio,[15],100
same,inhibition,[16],60%
same,inhibition,[3],92.5%
same,Retention_time,[2],14.51 min
same,"remaining at 1 h, 1 µM",[17],1.93%
same,Drug metabolism,[26],metabolite_detected
Cn1c2ccccc2c2cc(CCCOc3ncccc3-c3cccnc3F)cnc21,IC50,[4],5940 nM
same,inhibition,[3],48.9%
Cn1c2ccccc2c2cc(/C=C\Oc3ncccc3-c3cncnc3)cnc21,Drug metabolism,[1],metabolite_detected
same,Retention_time,[2],10.86 min
C[N+]1([O-])c2ccccc2-c2cc(/C=C/Oc3ncccc3-c3cncnc3)cnc21 (centres undefined),Drug metabolism,[1],metabolite_detected
same,Retention_time,[2],8.64 min
[O-][n+]1cc(CCOc2ncccc2-c2cncnc2)cc2c3ccccc3[nH]c21,Drug metabolism,[1],metabolite_detected
same,Retention_time,[2],6.78 min
Cn1c2ccccc2c2cc(/C=C/Oc3ncccc3-c3cncnc3)cnc21,Drug metabolism,[1],metabolite_detected
same,Retention_time,[2],11.81 min
Cn1c2ccccc2c2cc(CCCOc3ncccc3-c3cncnc3)cnc21,IC50,[4],3220 nM
same,inhibition,[3],43.1%
Cn1c2ccccc2c2cc(CCOc3ncccc3-c3ccc(F)cc3)cnc21,IC50,[4],68.5 nM
same,inhibition,[3],88.5%
Cn1c2ccccc2c2cc(C3(COc4ncccc4-c4cncnc4)CC3)cnc21,IC50,[4],971 nM
same,"remaining at 1 h, 1 µM",[10],19.6%
same,inhibition,[3],54.7%
same,"remaining at 1 h, 1 µM",[17],17.5%
Cn1cc(COc2ncccc2-c2ccncc2)c2nc3ccccc3cc21,inhibition,[3],24.6%
Cn1c2ccccc2c2cc(CCOc3ncccc3-c3ccc(Cl)cc3)cnc21,IC50,[4],592 nM
same,inhibition,[3],75.7%
Cn1c2ccccc2c2cc(CCOc3nccnc3-c3ccc(F)cc3)cnc21,inhibition,[5],0.1%
same,concentration at 1 h,[27],< 5.4 ng/mL
same,inhibition,[6],18.3%
same,inhibition,[7],18.6%
same,inhibition,[8],11.9%
same,IC50,[4],41.5 nM
same,inhibition,[9],13.5%
same,"remaining at 1 h, 1 µM",[10],9.92%
same,inhibition,[11],1.6%
same,inhibition,[12],0%
same,inhibition,[13],0.7%
same,inhibition,[14],5.9%
same,Selectivity ratio,[15],100
same,inhibition,[16],60%
same,inhibition,[3],85.4%
same,AUC(0-t),[28],190 ng·h/mL
same,"remaining at 1 h, 1 µM",[17],3.19%
same,Cmax,[29],103 ng/mL
Cn1c2ccccc2c2cc(COc3nccc(-c4ccc(F)cc4)n3)cnc21,inhibition,[3],23.9%
Cn1c2ccccc2c2cc(CCOc3nccnc3-c3ccc(Cl)cc3)cnc21,IC50,[4],188 nM
same,inhibition,[3],87.2%
Cn1c2ccccc2c2cc(CCOc3nccnc3-c3ccncc3)cnc21,inhibition,[5],0.2%
same,inhibition,[6],27%
same,inhibition,[7],21.7%
same,inhibition,[8],34.5%
same,IC50,[4],11.2 nM
same,inhibition,[9],30.1%
same,"remaining at 1 h, 1 µM",[10],0.72%
same,inhibition,[11],4.3%
same,inhibition,[12],2%
same,inhibition,[13],11.9%
same,inhibition,[14],13.6%
same,Selectivity ratio,[15],100
same,inhibition,[16],60%
same,inhibition,[3],97.2%
same,"remaining at 1 h, 1 µM",[17],1.03%
FC(F)(F)Cn1cc(-c2ccncc2)c(-c2ccc(OCc3ccc4ccccc4n3)cc2)n1,IC50,[4],1.41 nM
Cn1c2ccccc2c2cc(COc3nccnc3-c3cncnc3)cnc21,inhibition,[3],10.9%
Cn1c2ccccc2c2cc(CCOc3ncccc3-c3ccncc3)cnc21,inhibition,[5],0%
same,inhibition,[6],40.5%
same,inhibition,[7],17.4%
same,inhibition,[8],41.4%
same,IC50,[4],10.4 nM
same,inhibition,[9],40.9%
same,"remaining at 1 h, 1 µM",[10],0.63%
same,inhibition,[11],1.3%
same,inhibition,[12],11.2%
same,inhibition,[13],0.6%
same,inhibition,[14],36.5%
same,Selectivity ratio,[15],100
same,inhibition,[16],60%
same,inhibition,[3],95.8%
same,"remaining at 1 h, 1 µM",[17],0.77%
Cn1c2ccccc2c2cc(COc3nccc(-c4cncnc4)n3)cnc21,inhibition,[3],23.6%
Cn1c2ccccc2c2cc(/C=C/Oc3ncccc3-c3cncnc3)c[n+]([O-])c21,Drug metabolism,[1],metabolite_detected
same,Retention_time,[2],9.23 min
